{"source": "patent US20070082903A1", "about": "“Remedy for rheumatoid arthritis” (priority 2003, published 2007)", "key": {"[1]": {"tested_on": "patients with rheumatoid arthritis", "assay": "administration to patients with rheumatoid arthritis, ACR criterion evaluation at 16 weeks", "type": "in vivo, human", "settings": "for improvement rate: SF-36 mental scale / improvement rate: SF-36 physical scale / improvement rate: erythrocyte sedimentation rate / improvement rate: patient's self-assessed physical functions / improvement rate: reduction of swollen joint count / improvement rate: reduction of tender joint count / improvement rate: patient's assessment of pain / improvement rate: patient's global assessment of disease activity / improvement rate: physician's global assessment of disease activity / improvement rate: CRP: 16 weeks vs initial value; for improvement rate: patient's assessment of pain / improvement rate: patient's global assessment of disease activity / improvement rate: physician's global assessment of disease activity: VAS; for improvement rate: CRP: in % (unit assumed)", "from_the_text": "When 20% or more improvement is observed in the items 1) and 2) and 20% or more improvement is observed in at least three of the five items 3) to 7), the therapeutic effect is rated as “20% improvement on the criterion established by the American College of Rheumatology” (20% improvement on the ACR criterion). • 1) Reduction of tender joint count. • 2) Reduction of swollen joint count. • 3) Patient's global assessment of disease activity. • 4) Physician's global assessment of disease activity. • 5) Patient's assessment of pain. • 6) Patient's self-assessed physical functions. • 7) CRP or erythrocyte sedimentation rate.\nSimilarly, when 50% or more improvement is observed in the items 1) and 2) and 50% or more improvement is observed in at least three of the five items 3) to 7), the therapeutic effect is rated as “50% improvement on the criterion established by the American College of Rheumatology” (50% improvement on the ACR criterion).\nSMP-114 was orally administered once a day after a meal to patients with rheumatoid arthritis who had been treated with 1 to 5 DMARDs other than SMP-114 (to whom these DMARDs seemed to be non-administrable because of their side effects, or for whom these DMARDs seemed to be ineffective or insufficiently effective). As to the dose, a placebo, 40 mg/day, 80 mg/day and 120 mg/day were employed (about 50 cases per group). […] SMP-114 was continuously administered to patients in whom the standard had been reached, until the 24th week while keeping the test blind. Sixteen weeks after the start of the administration, the placebo group, 40 mg/day group, 80 mg/day group and 120 mg/day group were compared with respect to the proportion of patients satisfying the requirement “20% improvement on the criterion established by the American College of Rheumatology”, whereby the efficacy of the SMP-114 was evaluated (in the present example, the following ratings were given on a visual analogue scale (VAS): 3) a patient's global assessment of disease activity, 4) a physician's global assessment of disease activity, and 5) a patient's assessment of pain, on the ACR criterion.).\nWhen the following improvements are observed on the above-mentioned criterion of improvement established by the American College of Rheumatology, it is judged that “50% improvement on the criterion established by the American College of Rheumatology” (50% improvement on the ACR criterion) has been achieved: 50% or more improvement is observed in the items 1) and 2) and 50% or more improvement is observed in at least three of the five items 3) to 7). The efficacy of SMP-114 may be evaluated on the basis of the proportion of patients satisfying the requirement “50% improvement on the criterion established by the American College of Rheumatology”.\nThe efficacy of SMP-114 may be evaluated on the basis of improvement rates of the above-mentioned rating items on the criterion established by the American College of Rheumatology and QOL measure (SF-36) (Ware, J E. & Sherbourne C D., “The MOS 36-Item Short-Form Health Survey (SF-36); 1. Conceptual 10 Framework and Item Selection.”, Med Care 1981; 18:806). The improvement rates may be expressed as the rates of change calculated on the basis of the difference between values obtained 16 weeks after the start of the administration and initial values obtained before the start of the administration.\nStratification analysis was carried out by employing as an indication the history of treatment with disease modifying antirheumatic drugs (DMARDs) other than SMP-114, i.e., the number of the DMARDs other than SMP-114 which had been used. There are shown below the results of the analysis carried out by dividing patients into patients with rheumatoid arthritis who had been treated with one or two DMARDs other than SMP-114 (group A) and patients with rheumatoid arthritis who had been treated with 3 to 5 DMARDs other than SMP-114 (group B). […]"}, "[2]": {"assay": "repeated administration test on healthy male Japanese (7 days)", "type": "in vivo, human", "method": "AUC0-24 level of the agent in its repeated administration to humans A repeated administration test on healthy male Japanese of 20 to 40 years old was carried out. Using the SMP-114 tablets and placebo tablets, 80 mg of each of the placebo and SMP-114 was orally administered once a day for 7 days by a placebo controlled double-blind method (8 cases of SMP-114 administration and 2 cases of placebo administration: 10 subjects in total)."}, "[3]": {"settings": "40 mg/day, 16 weeks, erythrocyte sedimentation rate used as item 7)"}, "[4]": {"settings": "80 mg/day, 16 weeks, erythrocyte sedimentation rate used as item 7)"}, "[5]": {"settings": "120 mg/day, 16 weeks, erythrocyte sedimentation rate used as item 7)"}, "[6]": {"settings": "total active groups, patient's assessment of pain (VAS) < 67"}, "[7]": {"settings": "total active groups, patient's assessment of pain (VAS) ≧ 67"}, "[8]": {"settings": "total active groups, physician's global assessment (VAS) < 63"}, "[9]": {"settings": "total active groups, physician's global assessment (VAS) ≧ 63"}}}
{"smiles": "C[C@@H](c1ccc(-c2ccccc2)c(F)c1)c1cc(/N=C(/N)N2CCOCC2)on1", "note": "[SMP-114, 3-[(1S)-1-(2-fluorobiphenyl-4-yl)ethyl]-5-{[amino(morpholin-4-yl)methylene]amino}isoxazole]", "values": [{"measurement": "improvement rate: SF-36 mental scale", "setting": "[1]; 40 mg/day", "result": 43.7, "unit": "%"}, {"measurement": "improvement rate: SF-36 physical scale", "setting": "[1]; 40 mg/day", "result": 33.3, "unit": "%"}, {"measurement": "improvement rate: erythrocyte sedimentation rate", "setting": "[1]; 40 mg/day", "result": 3.2, "unit": "%"}, {"measurement": "improvement rate: patient's self-assessed physical functions", "setting": "[1]; 40 mg/day", "result": 4.3, "unit": "%"}, {"measurement": "improvement rate: reduction of swollen joint count", "setting": "[1]; 40 mg/day", "result": 22.3, "unit": "%"}, {"measurement": "improvement rate: reduction of tender joint count", "setting": "[1]; 40 mg/day", "result": 16.0, "unit": "%"}, {"measurement": "improvement rate: patient's assessment of pain", "setting": "[1]; 40 mg/day", "result": 17.1, "unit": "%"}, {"measurement": "improvement rate: patient's global assessment of disease activity", "setting": "[1]; 40 mg/day", "result": 19.3, "unit": "%"}, {"measurement": "improvement rate: physician's global assessment of disease activity", "setting": "[1]; 40 mg/day", "result": 12.7, "unit": "%"}, {"measurement": "improvement rate: CRP", "setting": "[1]; 40 mg/day", "result": "−12.3"}, {"measurement": "ACR20 improvement rate", "setting": "[1]; 40 mg/day, 16 weeks, CRP used as item 7)", "result": 38.2, "unit": "%"}, {"measurement": "ACR20 improvement rate", "setting": "[1]; [3]", "result": 38.2, "unit": "%"}, {"measurement": "ACR50 improvement rate", "setting": "[1]; [3]", "result": 10.9, "unit": "%"}, {"measurement": "Number of ACR50 responders", "setting": "[1]; 40 mg/day, 55 patients", "result": 6}, {"measurement": "Number of ACR20 responders", "setting": "[1]; 40 mg/day, 55 patients, CRP used", "result": 21}, {"measurement": "Number of ACR20 responders", "setting": "[1]; 40 mg/day, 55 patients, erythrocyte sedimentation rate used", "result": 21}, {"measurement": "improvement rate: SF-36 mental scale", "setting": "[1]; 80 mg/day", "result": 46.1, "unit": "%"}, {"measurement": "improvement rate: SF-36 physical scale", "setting": "[1]; 80 mg/day", "result": 28.8, "unit": "%"}, {"measurement": "improvement rate: erythrocyte sedimentation rate", "setting": "[1]; 80 mg/day", "result": 4.0, "unit": "%"}, {"measurement": "improvement rate: patient's self-assessed physical functions", "setting": "[1]; 80 mg/day", "result": 10.6, "unit": "%"}, {"measurement": "improvement rate: reduction of swollen joint count", "setting": "[1]; 80 mg/day", "result": 18.7, "unit": "%"}, {"measurement": "improvement rate: reduction of tender joint count", "setting": "[1]; 80 mg/day", "result": 27.6, "unit": "%"}, {"measurement": "improvement rate: patient's assessment of pain", "setting": "[1]; 80 mg/day", "result": 16.5, "unit": "%"}, {"measurement": "improvement rate: patient's global assessment of disease activity", "setting": "[1]; 80 mg/day", "result": 20.5, "unit": "%"}, {"measurement": "improvement rate: physician's global assessment of disease activity", "setting": "[1]; 80 mg/day", "result": 21.5, "unit": "%"}, {"measurement": "improvement rate: CRP", "setting": "[1]; 80 mg/day", "result": "−26.4"}, {"measurement": "ACR20 improvement rate", "setting": "[1]; 80 mg/day, 16 weeks, CRP used as item 7)", "result": 34.5, "unit": "%"}, {"measurement": "ACR20 improvement rate", "setting": "[1]; [4]", "result": 36.4, "unit": "%"}, {"measurement": "ACR50 improvement rate", "setting": "[1]; [4]", "result": 10.9, "unit": "%"}, {"measurement": "Number of ACR50 responders", "setting": "[1]; 80 mg/day, 55 patients", "result": 6}, {"measurement": "Number of ACR20 responders", "setting": "[1]; 80 mg/day, 55 patients, CRP used", "result": 19}, {"measurement": "Number of ACR20 responders", "setting": "[1]; 80 mg/day, 55 patients, erythrocyte sedimentation rate used", "result": 20}, {"measurement": "improvement rate: SF-36 mental scale", "setting": "[1]; 120 mg/day", "result": 44.8, "unit": "%"}, {"measurement": "improvement rate: SF-36 physical scale", "setting": "[1]; 120 mg/day", "result": 30.2, "unit": "%"}, {"measurement": "improvement rate: erythrocyte sedimentation rate", "setting": "[1]; 120 mg/day", "result": "−7.5", "unit": "%"}, {"measurement": "improvement rate: patient's self-assessed physical functions", "setting": "[1]; 120 mg/day", "result": "−8.7", "unit": "%"}, {"measurement": "improvement rate: reduction of swollen joint count", "setting": "[1]; 120 mg/day", "result": 19.7, "unit": "%"}, {"measurement": "improvement rate: reduction of tender joint count", "setting": "[1]; 120 mg/day", "result": 22.7, "unit": "%"}, {"measurement": "improvement rate: patient's assessment of pain", "setting": "[1]; 120 mg/day", "result": 17.1, "unit": "%"}, {"measurement": "improvement rate: patient's global assessment of disease activity", "setting": "[1]; 120 mg/day", "result": 14.2, "unit": "%"}, {"measurement": "improvement rate: physician's global assessment of disease activity", "setting": "[1]; 120 mg/day", "result": 24.1, "unit": "%"}, {"measurement": "improvement rate: CRP", "setting": "[1]; 120 mg/day", "result": "−98.6"}, {"measurement": "ACR20 improvement rate", "setting": "[1]; 120 mg/day, 16 weeks, CRP used as item 7)", "result": 37.0, "unit": "%"}, {"measurement": "ACR20 improvement rate", "setting": "[1]; [5]", "result": 37.0, "unit": "%"}, {"measurement": "ACR50 improvement rate", "setting": "[1]; [5]", "result": 13.0, "unit": "%"}, {"measurement": "Number of ACR50 responders", "setting": "[1]; 120 mg/day, 54 patients", "result": 7}, {"measurement": "Number of ACR20 responders", "setting": "[1]; 120 mg/day, 54 patients, CRP used", "result": 20}, {"measurement": "Number of ACR20 responders", "setting": "[1]; 120 mg/day, 54 patients, erythrocyte sedimentation rate used", "result": 20}, {"measurement": "ACR20 improvement rate", "setting": "[1]; total active groups (40, 80, 120 mg/day), Group A, DMARDs treatment history = 1-2 drugs", "result": 44, "unit": "%"}, {"measurement": "ACR20 improvement rate", "setting": "[1]; total active groups (40, 80, 120 mg/day), Group B, DMARDs treatment history = 3-5 drugs", "result": 32, "unit": "%"}, {"measurement": "ACR20 responders / cases", "setting": "[1]; total active groups, Group A, DMARDs treatment history = 1-2 drugs", "result": "32/72"}, {"measurement": "ACR20 responders / cases", "setting": "[1]; total active groups, Group B, DMARDs treatment history = 3-5 drugs", "result": "29/92"}, {"measurement": "ACR20 improvement rate", "setting": "[1]; [6]", "result": 50, "unit": "%"}, {"measurement": "ACR20 responders / cases", "setting": "[1]; [6]", "result": "36/72"}, {"measurement": "ACR20 improvement rate", "setting": "[1]; [7]", "result": 27, "unit": "%"}, {"measurement": "ACR20 responders / cases", "setting": "[1]; [7]", "result": "25/92"}, {"measurement": "ACR20 improvement rate", "setting": "[1]; [8]", "result": 42, "unit": "%"}, {"measurement": "ACR20 responders / cases", "setting": "[1]; [8]", "result": "31/74"}, {"measurement": "ACR20 improvement rate", "setting": "[1]; [9]", "result": 33, "unit": "%"}, {"measurement": "ACR20 responders / cases", "setting": "[1]; [9]", "result": "30/90"}, {"measurement": "accumulative property", "setting": "[2]; 80 mg once a day for 7 days", "result": "no accumulative property"}, {"measurement": "tolerance", "setting": "[2]; 80 mg oral once a day for 7 days", "result": "satisfactory"}, {"measurement": "AUC(0-t)", "setting": "[2]; human, serum, 80 mg oral once a day for 7 days, tablets, read-out: AUC0-24 at a steady state", "result": 15300, "unit": "ng·h/mL"}]}
